Data as given in US20210205398A1, “COMPOSITIONS CONTAINING PHRAGMITIS RHIZOMA EXTRACT AS ACTIVE INGREDIENT FOR PREVENTION, AMELIORATION, OR TREATMENT OF A DISORDER CAUSED BY SIDE EFFECT OF ANTICANCER AGENT” (KOREA INSTITUTE OF ORIENTAL MEDICINE, priority 2016, published 2021).

Columns and labels:
[1] = tested on: animal model having bone marrow suppression induced by docetaxel; experiment: Alleviation of bone marrow suppression in animal model having bone marrow suppression induced by docetaxel; format: in vivo, C57BL/6 mice
Procedure: After that, a change brought by the Phragmitis Rhizoma extract was determined.
Specifically, C57BL/6 mice were categorized into 4 groups. Group 1 is a control, i.e., a group treated with saline containing 5% ethanol and 2% polysorbate 80. Group 2 is a docetaxel treatment group, i.e., a group with intraperitoneal injection (3 times) of 30 mg/kg docetaxel. Group 3 is a docetaxel and 125 mg/kg Phragmitis Rhizoma extract administration group, i.e., a group to which compulsory administration of 125 mg/kg Phragmitis Rhizoma extract was carried out, once a day starting from 2 days before the administration of docetaxel, and the compulsory administration of 125 mg/kg Phragmitis Rhizoma extract (once a day) was continued even for the 3 days of administering docetaxel. Lastly, Group 4 is a docetaxel and 250 mg/kg Phragmitis Rhizoma extract administration group, i.e., a group to which administration of 250 mg/kg Phragmitis Rhizoma extract was carried out, in the same manner as above Group 3, once a day starting from 2 days before the administration of docetaxel, and the compulsory administration of 250 mg/kg Phragmitis Rhizoma extract (once a day) was continued even for the 3 days of administering docetaxel.
After that, a change in body weight of the mouse belonging to each of the control group, docetaxel administration group, combined administration group with docetaxel and 125 mg/kg Phragmitis Rhizoma extract, and combined administration group with docetaxel and 250 mg/kg Phragmitis Rhizoma extract was measured every day. On Day 6, the mouse was sacrificed and the weight of the spleen and thymus, which play an important role in determining cell number change in bone marrow and hematopoiesis, was measured.
Organ index (mg/g)=Weight of organ (mg)/Weight of animal (g)

[2] = tested on: bone marrow cells from mouse femur; experiment: Hematopoietic toxicity in mouse having intraperitoneal injection of anticancer agent (in vivo), bone marrow cell count; parameters: species or system C57BL/6 mouse; settings: docetaxel i.p. 50, 100, or 150 mg/kg; three days and seven days after injection; FIG. 2
Procedure: A C57BL/6 mouse was subjected to intraperitoneal injection of docetaxel at 50, 100, or 150 mg/kg. Three days and seven days after the injection, bone marrow cells were isolated from the mouse femur and counted, and the survival rate was measured.

[3] = tested on: animal model having docetaxel-induced bone marrow suppression; experiment: Blood cell numbers in animal model having docetaxel-induced bone marrow suppression; format: in vivo, C57BL/6 mice
Procedure: In order to determine the influence of Phragmitis Rhizoma extract on blood parameters of an animal model having bone marrow suppression, bone marrow suppression was induced by intraperitoneal injection of docetaxel to a mouse. After that, a change brought by the Phragmitis Rhizoma extract was determined.
Specifically, C57BL/6 mice were categorized into 5 groups. Group 1 is a control, i.e., a group treated with saline containing 5% ethanol and 2% polysorbate 80. Group 2 is a docetaxel treatment group, i.e., a group with intraperitoneal injection (3 times) of 30 mg/kg docetaxel. Group 3 is a docetaxel and 30 mg/kg Phragmitis Rhizoma extract administration group, i.e., a group to which compulsory administration of 30 mg/kg Phragmitis Rhizoma extract was carried out, once a day starting from 2 days before the administration of docetaxel, and the compulsory administration of 30 mg/kg Phragmitis Rhizoma extract (once a day) was continued even for the 3 days of administering docetaxel. Group 4 is a docetaxel and 100 mg/kg Phragmitis Rhizoma extract administration group, i.e., a group to which administration was carried out in the same manner as above Group 3. Lastly, Group 5 is a docetaxel and 300 mg/kg Phragmitis Rhizoma extract administration group, i.e., a group to which administration was carried out in the same manner as Group 3.
Blood was taken from the animal and a change in the number of blood cells was determined.

[4] = docetaxel 30 mg/kg i.p. 3 times, alone, Day 6
[5] = docetaxel 30 mg/kg i.p. 3 times, alone, mean ± SEM, ten mice

number of bone marrow cells (bone marrow mononuclear cells) ([1]; docetaxel 30 mg/kg i.p. 3 times, alone, vs control, FIG. 5): decreased significantly | Spleen index [1, 4]: 2.366 ± 0.22 mg/g | Thymus index [1, 4]: 0.911 ± 0.22 mg/g | organ index of spleen and thymus (in words) ([1]; docetaxel alone): a decrease in organ index | expression of IL-3 (mRNA, spleen tissue) ([1]; docetaxel alone, FIG. 8): largely decreased | Lymphocytes [3, 5]: 1.56 ± 0.22 | Neutrophils [3, 5]: 0.30 ± 0.01 | RBCs [3, 5]: 7.72 ± 0.15 | WBCs [3, 5]: 2.09 ± 0.19
SMILES: CC(=O)O[C@@]12CO[C@@H]1C[C@H](O)[C@@]1(C)C(=O)[C@H](O)C3=C(C)[C@@H](OC(=O)[C@H](O)[C@@H](NC(=O)OC(C)(C)C)c4ccccc4)C[C@@](O)([C@@H](OC(=O)c4ccccc4)[C@H]21)C3(C)C [docetaxel]
body weight ([1]; docetaxel 30 mg/kg i.p. 3 times, alone, FIG. 4): a significant decrease in body weight was induced | histopathological analysis of thymus ([1]; docetaxel administration, FIG. 7): organ shrinkage and loss of functional lymphoid organ | histological analysis of femur (H&E) ([1]; docetaxel only, FIG. 6): a hypocellularity and an abnormality in cellular structure in bone marrow | number of isolated bone marrow cells [2]: a decrease in the number of the isolated bone marrow cells was observed in significant sense | number of blood cells (in words) ([3]; docetaxel administration group): a decrease in the number of the white blood cells, neutrophils, lymphocytes, and red blood cells
